This is an account of results in article PMC8398983, “Triarylborane Dyes as a Novel Non-Covalent and Non-Inhibitive Fluorimetric Markers for DPP III Enzyme” (Molecules, 2021).

Structures are written as SMILES. Residue numbers refer to the chain shown, from its start.

Assay in all cases: fluorimetric titration, […] fit
What all share (type): binding

The target in test [1] is T1, hDPP III (Homo sapiens, UniProt Q9NY33, E451A).
T1 construct: gene DPP3; recombinant, C-terminal His-tag, expressed in E. coli from pET21b, Ni-NTA purified
T1 sequence (Q9NY33 2-737 E451A): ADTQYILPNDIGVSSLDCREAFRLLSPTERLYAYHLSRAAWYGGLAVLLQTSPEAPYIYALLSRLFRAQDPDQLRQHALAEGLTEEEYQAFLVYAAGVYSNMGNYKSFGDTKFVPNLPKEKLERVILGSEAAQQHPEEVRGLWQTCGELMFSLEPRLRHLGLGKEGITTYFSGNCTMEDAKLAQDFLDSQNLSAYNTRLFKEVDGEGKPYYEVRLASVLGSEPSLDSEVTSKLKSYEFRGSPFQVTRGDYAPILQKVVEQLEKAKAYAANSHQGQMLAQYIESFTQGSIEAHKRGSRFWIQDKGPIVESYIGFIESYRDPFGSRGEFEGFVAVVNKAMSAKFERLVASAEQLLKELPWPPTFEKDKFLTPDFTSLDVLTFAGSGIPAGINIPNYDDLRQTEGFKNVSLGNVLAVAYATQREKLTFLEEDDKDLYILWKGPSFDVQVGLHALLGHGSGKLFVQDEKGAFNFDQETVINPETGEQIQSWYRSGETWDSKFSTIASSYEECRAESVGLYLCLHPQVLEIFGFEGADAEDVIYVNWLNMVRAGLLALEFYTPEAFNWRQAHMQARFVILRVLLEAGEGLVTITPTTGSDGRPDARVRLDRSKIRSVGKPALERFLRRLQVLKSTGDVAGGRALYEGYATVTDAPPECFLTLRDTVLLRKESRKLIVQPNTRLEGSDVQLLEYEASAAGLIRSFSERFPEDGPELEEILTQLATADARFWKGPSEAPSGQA
The following applies: read-out: logKs (converted).

The target of test [2] is T2, hDPP III (Homo sapiens, UniProt Q9NY33).
T2 construct: gene DPP3; recombinant, C-terminal His-tag, expressed in E. coli from pET21b, Ni-NTA purified
T2 sequence (Q9NY33 2-737): T1 sequence (Q9NY33 2-737 E451A) with A450E
The following applies: TRIS-HCl buffer I = 0.02 M, pH 7.4.

The target of test [3] is T3, BSA (bovine serum albumin) (Bos taurus, UniProt P02769).
T3 construct: gene ALB; commercial native protein (Sigma Aldrich), mature serum albumin
T3 sequence (P02769 25-607): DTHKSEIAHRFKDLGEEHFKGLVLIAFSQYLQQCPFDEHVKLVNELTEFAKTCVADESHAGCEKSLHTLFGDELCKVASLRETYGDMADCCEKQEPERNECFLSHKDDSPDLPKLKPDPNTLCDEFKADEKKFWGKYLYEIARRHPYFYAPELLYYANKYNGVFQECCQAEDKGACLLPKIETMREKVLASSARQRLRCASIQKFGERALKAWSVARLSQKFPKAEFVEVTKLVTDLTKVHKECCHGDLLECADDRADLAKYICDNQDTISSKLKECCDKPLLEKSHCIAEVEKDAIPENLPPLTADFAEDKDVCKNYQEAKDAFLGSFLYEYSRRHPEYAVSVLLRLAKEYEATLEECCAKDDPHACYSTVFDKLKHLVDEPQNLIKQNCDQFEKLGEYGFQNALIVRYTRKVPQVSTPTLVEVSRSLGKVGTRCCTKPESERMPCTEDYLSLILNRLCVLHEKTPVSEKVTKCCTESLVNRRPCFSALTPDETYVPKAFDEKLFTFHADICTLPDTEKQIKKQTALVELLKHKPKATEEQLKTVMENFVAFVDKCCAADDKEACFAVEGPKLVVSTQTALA
To be noted: read-out: logKs (converted).

Turning to `Cc1cc(-c2cn(C(CCCCNC(=O)CCCc3ccc4ccc5cccc6ccc3c4c56)C(=O)O)nn2)cc(C)c1B(c1c(C)cc(N(C)C)cc1C)c1c(C)cc(N(C)C)cc1C` (stereo not drawn) [compound 2, Triaryl-borane-amino acid-pyrene conjugate 2], the Kd in test [1] and in test [3] was 398 nM each time. Also, the logKs entry in test [2] (λexc 342 and 403 nm) was “performed fluorimetric titrations with wild type (wt) hDPP III”.
On to `Cc1cc(-c2cn(C(CCCCN)C(=O)O)nn2)cc(C)c1B(c1c(C)cc(N(C)C)cc1C)c1c(C)cc(N(C)C)cc1C` (stereo not drawn) [compound 1, Triaryl-borane-amino acid conjugate 1], for which the values for the Kd in test [1] and in test [3] were 251 nM and 501 nM, respectively. In addition, in test [2] (λexc 400 nm), the logKs entry was “performed fluorimetric titrations with wild type (wt) hDPP III”.
